Measured values from patent publication US20100311756A1, “METHODS FOR DELAYING THE PROGRESSION OF AT LEAST ONE OF CARDIAC HYPERTROPHY, CARDIAC REMODELING OR LEFT VENTRICULAR FUNCTION OR THE ONSET OF HEART FAILURE IN SUBJECTS IN NEED OF TREATMENT THEREOF” (TAKEDA PHARMACEUTICALS NORTH AMERICA, INC., priority 2009, published 2010).

Test system: post-myocardial infarction rabbits
Assay: Chronic xanthine oxidase inhibition following myocardial infarction (permanent coronary artery ligation) in rabbits
Format: in vivo
Settings: for Heart Weight / Heart/Body Weight Ratio: Day 49; for EDV / EF (ejection fraction) / LVIDd / LVIDs / LVPWd / LVPWs / SF (shortening fraction): baseline (Day 0, pre-surgery, before dosing); for Ejection fraction (percent change from baseline) versus vehicle/control / Shortening fraction (percent change from baseline) versus vehicle/control: delayed treatment (from Day 22)
From the text: • Animals Male New Zealand white rabbits (1-2 kg; Clerco Research Farms, Cincinnati, Ohio, USA) were housed in separate cages in an environmentally controlled facility. The animals were subjected to circadian light-dark cycles, maintained on standard rabbit chow (2030C, Harlan Teklad, Madison, Wis., USA) and provided water ad libitum.
The procedures used in this study were reviewed and approved by the Institutional Animal Care and Use Committee (IACUC) of QTest Labs for compliance with regulations and current accepted practices. All applicable sections of the Final Rules of the Animal Welfare Act regulations (Section 9 CFR) and the Public Health Service Policy on Humane Care and Use of Laboratory Animals (OPRR, NIH, 1986) were followed. At the end of the study, all animals were humanely euthanized in accordance with accepted guidelines of the American Veterinary Medical Association (See, American Veterinary Medicine Association (AVMA), 2000 Report of the AVMA Panel on Euthanasia, The Journal of the American Veterinary Medical Association, 218(5):669-696 (2001)). • Drugs Febuxostat and allopurinol (Sigma-Aldrich, St. Louis, Mo., USA) were each formulated as a suspension in 0.5% methylcellulose (Sigma-Aldrich, St. Louis, Mo.) as the vehicle. […] Allopurinol was given orally at 60 mg/kg. […] The rabbits were anesthetized with an intramuscular injection of ketamine (35 mg/kg)/xylazine (5 mg/kg) and pre-surgery enrofloxacin (12 mg/kg). Isoflurane (1-2%) was given during the surgery as required to maintain a deep level of anesthesia and the animals were allowed to breathe 100% oxygen. A limb lead electrocardiogram (ECG) was obtained to monitor sinus rhythm, heart rate, and J-point deviation. The rabbit was placed in dorsal recumbency, and the sternum was exposed by blunt dissection and then incised with scissors. […] Myocardial ischemia was confirmed by regional cyanosis of the myocardial surface and ST-segment elevation on the ECG. The sternum was closed, leaving the pericardial sac as it was. The muscle layers, subcutaneous layer and skin were then closed. Ketofen (1 mg/kg) and buprenorphine (0.03 mg/kg/8 hour) were administered subcutaneously, and the rabbits were placed on a heating pad, covered with a towel, and observed continuously until awake. Post-operative medications given subcutaneously to the rabbits included enrofloxacin (12 mg/kg, b.i.d.), ketofen (0.03 mg/kg, b.i.d.), and buprenorphine ([…], t.i.d. to q.i.d.) for 1 to 3 days as needed. • Experimental Procedures Rabbits were surgically altered (Day 0) to produce MI-induced heart failure and assigned to one of four treatment groups: the vehicle/control group (n=8) received vehicle for 49 consecutive days (7 weeks), the febuxostat/early treatment group (n=8) received febuxostat (10 mg/kg) for 49 consecutive days (7 weeks), the febuxostat/delayed treatment group (n=7) received vehicle for 21 consecutive days (3 weeks) and then febuxostat (10 mg/kg) starting on Day 22 (3 weeks post-surgery) for 28 consecutive days (4 weeks), and the allopurinol/delayed treatment group (n=8) received vehicle for 21 consecutive days and then allopurinol (60 mg/kg) starting on Day 22 (3 weeks post-surgery) for 28 consecutive days (4 weeks). All treatments were started on Day 1 (i.e. the day after surgery) and administered by oral gavage (2 mL/kg). The animals were fasted overnight prior to each day of dosing.
On Day 0 (baseline, pre-surgery), and on Days 21 (end of week 3) and 49 (end of week 7) at approximately one hour after dosing, the rabbits were sling restrained for ECG acquisition.

[1] = delayed treatment: vehicle 21 days then oral FBS 10 mg/kg/day or AL 60 mg/kg/day for 28 days
[2] = early treatment: FBS 10 mg/kg/day oral for 49 days from 1 day after coronary occlusion
[3] = early treatment from one day after ligation, Day 21, still apparent on Day 49

Compound | Heart Weight [1] | Heart/Body Weight Ratio [1] | EDV (delayed treatment group) | EF (ejection fraction) (delayed treatment group) | LVIDd (delayed treatment group) | LVIDs (delayed treatment group) | LVPWd (delayed treatment group) | LVPWs (delayed treatment group) | SF (shortening fraction) (delayed treatment group) | Ejection fraction (percent change from baseline) versus vehicle/control (Days 21 and 49) | Shortening fraction (percent change from baseline) versus vehicle/control (Days 21 and 49) | also measured
Cc1nc(-c2ccc(OCC(C)C)c(C#N)c2)sc1C(=O)O [febuxostat, 2-[3-cyano-4-(2-methylpropoxy)phenyl]-4-methylthiazole-5-carboxylic acid] | 6.65 ± 0.27 g | 0.28 ± 0.01% | 1.42 ± 0.13 mL | 71 ± 1.7% | 1.11 ± 0.04 cm | 0.70 ± 0.02 cm | 0.32 ± 0.02 cm | 0.44 ± 0.02 cm | 36 ± 1.2% | not significantly different | not significantly different | Heart Weight [2]: small trend toward a lower; Heart/Body Weight Ratio [2]: 0.25 ± 0.01%; Heart Weight (early treatment: FBS 10 mg/kg/day oral for 49 days from 1 day after coronary occlusion, listed as FBS): 6.38 ± 0.19 g; EDV (early treatment group): 1.94 ± 0.25 mL; EF (ejection fraction) (early treatment group): 68 ± 1.8 %; LVIDd (early treatment group): 1.25 ± 0.04 cm; LVIDs (early treatment group): 0.82 ± 0.03 cm; LVPWd (early treatment group): 0.26 ± 0.02 cm; LVPWs (early treatment group): 0.49 ± 0.02 cm; SF (shortening fraction) (early treatment group): 34 ± 1.4 %; Reduction of ejection fraction (percent change from baseline) versus vehicle/control [3]: significantly lessened; Reduction of shortening fraction (percent change from baseline) versus vehicle/control [3]: significantly lessened; Increase in LVIDd versus vehicle/control (early treatment, Day 21): less of an increase; Increase in end diastolic volume versus vehicle/control (early treatment, Day 21): less of an increase; Increase in LVIDs versus vehicle/control (early treatment, Day 21, reaching statistical significance): less of an increase; Left ventricular posterior wall dimension during diastole, change from baseline (early treatment, Days 21 and 49): no reduction
Oc1ncnc2[nH]ncc12 [allopurinol] | 6.59 ± 0.30 g | 0.24 ± 0.01% | 2.21 ± 0.21 mL | 74 ± 1.9% | 1.29 ± 0.05 cm | 0.77 ± 0.03 cm | 0.31 ± 0.02 cm | 0.46 ± 0.02 cm | 40 ± 1.7% | not significantly different | not significantly different | 
